In the NIST ThermoML archive (doi:10.1016/j.jct.2008.12.010):
± gives the expanded uncertainty stated by the source.

Columns and labels:
[1] = for speed of sound / mass density: 101.33 kPa, Liquid; for speed of sound: Linear variable-path acoustic interferometer; for mass density: Vibrating tube method; for surface tension liquid-gas: Drop volume
[2] = xn = mol fraction of the nth substance listed; settings: for surface tension liquid-gas: 298.15 K, Drop volume; for speed of sound / mass density: 303.15 K, Liquid; for speed of sound: Linear variable-path acoustic interferometer; for mass density: Vibrating tube method

Cc1ccc(C)cc1 [1,4-dimethylbenzene]
[1]
Settings	mass density [kg/m3]	speed of sound [m/s]	surface tension liquid-gas [mN/m]
288.15 K	865.2 ± 0.23	1350.7 ± 2	–
293.15 K	860.9 ± 0.24	1329.6 ± 2	–
298.15 K	856.58 ± 0.24	1308.4 ± 2	27.43 ± 0.2
303.15 K	852.21 ± 0.24	1287.4 ± 1.9	–
308.15 K	847.83 ± 0.24	1266.4 ± 1.9	–

CCCCCCCCCC [decane]
[1]
Settings	mass density [kg/m3]	speed of sound [m/s]	surface tension liquid-gas [mN/m]
288.15 K	733.62 ± 0.24	1274.4 ± 1.9	–
293.15 K	729.86 ± 0.24	1254.8 ± 1.9	–
298.15 K	726.09 ± 0.24	1234.7 ± 1.9	23.1 ± 0.18
303.15 K	722.3 ± 0.25	1214.7 ± 1.9	–
308.15 K	718.51 ± 0.25	1194.9 ± 1.9	–

CCOC(=O)OCC [diethyl carbonate]
[1]
Settings	mass density [kg/m3]	speed of sound [m/s]	surface tension liquid-gas [mN/m]
288.15 K	980.4 ± 0.13	1218 ± 1.7	–
293.15 K	974.81 ± 0.13	1197.7 ± 1.7	–
298.15 K	969.19 ± 0.13	1176.9 ± 1.7	25.43 ± 0.25
303.15 K	963.6 ± 0.13	1156.3 ± 1.7	–
308.15 K	957.92 ± 0.13	1135.8 ± 1.7	–

CCOC(=O)OCC [diethyl carbonate] + CCCCCCCCCC
[2]
Settings	mass density [kg/m3]	speed of sound [m/s]	surface tension liquid-gas [mN/m]
x1 = 0.0495	729.09 ± 0.24	1207.8 ± 1.9	–
x1 = 0.04972	–	–	22.98 ± 0.26
x1 = 0.09861	736.12 ± 0.24	1201.1 ± 1.9	–
x1 = 0.09958	–	–	22.89 ± 0.26
x1 = 0.1979	751.5 ± 0.23	1188.8 ± 1.9	–
x1 = 0.1989	–	–	22.86 ± 0.26
x1 = 0.2966	–	–	22.84 ± 0.26
x1 = 0.3012	769.28 ± 0.22	1177.8 ± 1.8	–
x1 = 0.3959	–	–	22.89 ± 0.25
x1 = 0.3995	788 ± 0.21	1168.5 ± 1.8	–
x1 = 0.504	810.31 ± 0.2	1160.2 ± 1.8	–
x1 = 0.5144	–	–	22.97 ± 0.25
x1 = 0.5477	820.39 ± 0.2	1157.2 ± 1.8	–
x1 = 0.5568	–	–	22.98 ± 0.25
x1 = 0.5996	–	–	23.04 ± 0.25
x1 = 0.6015	833.53 ± 0.19	1153.9 ± 1.8	–
x1 = 0.699	859.54 ± 0.18	1149.6 ± 1.7	–
x1 = 0.7	–	–	23.24 ± 0.25
x1 = 0.7887	–	–	23.58 ± 0.25
x1 = 0.799	889.41 ± 0.17	1147.7 ± 1.7	–
x1 = 0.8986	–	–	24.27 ± 0.25
x1 = 0.9002	924.32 ± 0.17	1149.1 ± 1.7	–
x1 = 0.95	943.19 ± 0.16	1151.4 ± 1.7	–
x1 = 0.9516	–	–	24.76 ± 0.25
